From patent US9283212B2, “Pharmaceutical preparation and delivery system” (PALMAYA PTY LTD, priority 2009, dated 2016)
Entries after “also recorded” stand apart in the source; their conditions may differ.

Experiments:
[1] = tested on: subjects with panic disorder, social anxiety or alcohol dependence; settings: cited from earlier work
[2] = cited from earlier work
[3] = tested on: patients with addiction, chronic anxiety or sleep disorders; assay: continuous subcutaneous infusion of flumazenil in patients (case study and observations); type: in vivo, human; settings: intravenous infusions below 80 μg/h
[4] = tested on: patient suffering from chronic anxiety; assay: patient controlled subcutaneous pump, single dose, heart rate and anxiety; type: in vivo, human
Description: The heart rate and the body movement of the patient were recorded using standard equipment.

[5] = tested on: patients with addiction, chronic anxiety or sleep disorders; assay: continuous subcutaneous infusion of flumazenil in patients (case study and observations); type: in vivo, human
Description: A solution of flumazenil in saline solution was prepared by dissolving 16 mg of flumazenil in 30 mL of saline and adjusting the pH to between 6.5 to 7.0 with a phosphate buffer, solution (pH 5.0). The final concentration of flumazenil in saline is 0.53 mg/mL.
A solution of flumazenil in saline was prepared as set out above. That is, a portion of 12 to 16 mg flumazenil in 30 mL of saline was prepared for the subcutaneous administration via a spring driven 30 mL pump. The pump used was a portable infusion Springfusor pump (O'Neil Balloon Infuser, ID: SBI-100; Go Medical Industries). The delivery rate of the flumazenil was in the order of 40 to 1000 μg/h.
A Springfusor pump connected to tubing and a butterfly cannula was set up, wherein the pump was loaded with 30 mL of flumazenil solution (0.53 mg/mL). The butterfly cannula was inserted into the patient's abdomen using standard techniques and the pump set to delivery flumazenil at a rate of 166 μg/h. After the initial four day (96 hour) administration, the pump was reloaded with a further 30 mL of flumazenil solution (0.53 mgmL) and delivery continued for a further four days (96 hours). The subcutaneous infusion continued for a total of three weeks.

[6] = tested on: patients with cravings for smoking; settings: patient controlled delivery, agent alone
Description: In one experiment, flumazenil and naltrexone were mixed to capture the benefits of mixing a benzodiazepine antagonist and an opiate antagonist to be given in a pulsative manner when cravings were observed.

[7] = cited from earlier work; remark: listed apart in the source
[8] = continuous subcutaneous infusion

## CCOC(=O)c1ncn2c1CN(C)C(=O)c1cc(F)ccc1-2 [flumazenil]
[1]; bolus infusion of 2 mg in 10 minutes, subjects with panic disorder
  panic induction: can act as a specific panicogen
[1]; intravenous infusion
  effect on social anxiety or alcohol-dependent subjects: no effect
[2]; in vivo
  half life: very short half life
[2]; oral
  oral bioavailability: low oral bioavailability
[3]
  anticonvulsant effect: failed to stop epileptic convulsions
[4]; 60 minutes after single 1 mg subcutaneous dose, from close to 120 bpm before
  pulse rate: 80 bpm
[4]; single 1 mg dose via patient controlled subcutaneous pump
  anxiety: reduction in anxiety
[5]; after full treatment with subcutaneous infusion, one patient
  panic attacks: gone
[5]; constant subcutaneous delivery of 166 μg/h
  anticonvulsant effect: appears to be effective as an anticonvulsant
[5]; continuous infusion with or without opiate and cannabanoid antagonists, chronic anxiety disorders
  sleeping pulse rates: reductions in sleeping pulse rates
[5]; [8]
  anxiety levels / anxiety disorders: reduced; also recorded: marked improvements
  cognitive function: improved cognitive functions; also recorded: appeared to improve daily
[5]; continuous subcutaneous infusion 166 μg/h, one patient
  dependency on anti-psychotic drugs: decreased
[5]; continuous subcutaneous infusion, 166 μg/h, greater than four days
  sleep patterns / chronic sleep disorders: better sleep patterns; also recorded: gradually improved; also recorded: good response rates
[5]; continuous subcutaneous infusion, during and after infusion
  cravings for addictive substances (alcohol, smoking, amphetamines, opiates, benzodiazepines): decreased and eventually were considered negligible; also recorded: reduced; also recorded: reduction in craving for alcohol
[6]
  symptoms of craving and anxiety: decrease symptoms of craving and anxiety
[7]; acidic aqueous solutions
  solubility in acidic aqueous solutions: slightly soluble
[7]; water
  solubility in water: insoluble in water
